Values of other authors as cited in US6921754B2, “Compositions containing folic acid and reduced folate” (BASF Aktiengesellschaft, priority 2000, dated 2005).

System: neural tube defects (NTDs) in neonates
Settings: supplementation of pregnant women with 0.4 to 4 mg of folic acid/day (Hages et al., 1996)

In the case of `Nc1nc2ncc(CNc3ccc(C(=O)N[C@@H](CCC(=O)O)C(=O)O)cc3)nc2c(=O)[nH]1` [folic acid, N-[4-(2-Amino-3,4-dihydro-4-oxo-6-pteridinylmethylamino)-benzoyl]-L-glutamic acid], the “decrease in the frequency of abnormalities in newborn infants” value is listed as 50-80%.
